Results on 19 compounds are retold here after patent publication US12006330B2, “Substituted macrocyclic compounds and related methods of treatment” (Alkermes, Inc., priority 2020, dated 2024).

As a reminder, the Papp A→B is how fast a substance crosses the layer from the apical side. Higher therefore signals fast passage.

What all share (assay type): in vitro ADME
One series has as its system MDR1. Briefly: MDCK-MDR1 permeability assay. The settings on record: dog, MDCK-MDR1, MDCK-MDR1 cells; for efflux ratio at 2 h, 3 μM: Papp B→A divided by Papp A→B, read-out: Efflux ratio (ER); for Papp A→B at 2 h, 3 μM: test compound 3 μM, 2 hours at 37 degrees C, apical to basolateral. As to the method: The bidirectional permeability (Apical to Basal and Basal to Apical directions) of test compounds in MDCK-MIDR1 cells were evaluated using MDCK-MIDR1 cells seeded in Solvo PreadyPort™ MDCK 96-well plate. Once the plate was received from ReadyCell (Barcelona, Spain), it was treated as per PreadyPort™ user's manual.
For the Apical to Basolateral (A→B) permeability, 80 μL of test compound (3 μM) co-dosed with LY (Lucifer Yellow) (100 μM) in HBSS (Hank's Balanced Salt Solution) assay buffer was added to the donor side (A) while 250 μL of HBSS buffer was added to the receiver side (B). For the Basolateral to Apical (B→A) permeability, 255 μL of test compound (3 μM) in HBSS assay buffer was added to the donor side (B) while 75 μL of HBSS buffer containing LY (100 μM) was added to the receiver side (A).
The plate was placed in an incubator set at 37 degrees C. After 10 minutes of pre-warming, 5 μL aliquot was taken from donor compartment and set aside as the dosing solution. The MDCK-MDR1 incubation plate was placed back into the incubator for 2 hours of incubation at 37 degrees C. After 2 hours of incubation, 25 μL and 5 μL aliquots were removed from the receiver and donor sides, respectively. To the 5 μL aliquots taken from the donor sides (before and after a 2-hour incubation) were diluted with 20 μL of the HBSS buffer. All samples were mixed with 150 μL with acetonitrile containing internal standard (IS) and 200 μL water, and analyzed by LC-MS/MS.
The apparent permeability (Papp) was calculated using the following formula: Papp=dQ/dt×1/A×C0 where: • dQ/dt: amount of translocated material over incubation time (nmol/s) • A: area of insert (0.14 cm^2 for PreadyPort™ MDR1-96) • C0: initial concentration of product applied in apical (A→B) or basal (B→A) compartment (nmol/mL)
The efflux ratio (ER) was measured by dividing the Papp (basolateral to apical direction) by Papp (apical to basolateral direction). It is a general measure of the involvement of active processes. An ER>2 is considered positive for active transport.
Percent recovery was measured using the following equation:
[formula] where: • VR: Volume of the receiver compartment (mL) • VD: Volume of the donor compartment (mL) • CN: Concentration of dosing solution (μM) collected after 10 minutes of incubation • CR^final: Receiver concentration at the end of the incubation (μM) • CD^final: Donor concentration at the end of the incubation (μM)
The data reported in Table 3 were obtained according to the MDCK-MDR1 permeability assay described above.

Series [1] in a line: Hepatocytes stability assay (human hepatocytes). The settings on record: both sexes, human, cryopreserved hepatocytes, cryopreserved human hepatocytes (pool of 50 mixed gender); 1 μM test compound; 1×10^6 cell/mL; 37 degrees C; read-out: CLint (μL/min/million cells). As to the method: (§1) In vitro metabolic stability was assessed using cryopreserved hepatocytes from male Sprague Dawley rats and a pool of 50 mixed gender humans (BioIVT, Baltimore, MD). The incubation mixtures were prepared by mixing 250 μL of pre-warmed KHB (Krebs-Henseleit buffer) containing 2×10^6 cell/mL of hepatocytes with 250 μL of pre-warmed KHB buffer containing 2 μM of test compounds in a 48-well plate, giving a final concentration of 1 μM test compound (0.1% DMSO) and 1×10^6 cell/mL of hepatocytes. The reaction mixture was incubated at 37 degrees C. A 50 μL aliquot of incubation mixture was taken at time points (0, 15, 30, 60, 120 and 240 minutes) and transferred into a 96-well plate containing 300 μL ice-cold acetonitrile (containing 30 ng/mL of labetalol and 10 ng/mL of Naltrexone-d3 as internal standards) and immediately placed in ice to terminate the reaction. Samples were centrifuged, and supernatants were transferred into 96-well plates for liquid chromatography with tandem mass spectrometry (LC-MS/MS) analysis to monitor the depletion of the test compound.
(§2) Data was calculated as percent remaining by assuming zero-minute time point peak area ratio (analyte/IS) as 100% and dividing remaining time point peak area ratios by zero-minute time point peak area ratio. Data were fitted to a first-order decay model to determine half-life. From a plot of log (ln) peak area against time, the slope of the line was determined. Subsequently, half-life (T1/2) and intrinsic clearance (CLint) were calculated using the equations below: Elimination rate constant (k)=(−slope) Half-life (T1/2) min=0.693/k Intrinsic Clearance (CLint) (mL/min/million cells)=(V×0.693)/T1/2 V=incubation volume mL/number of cells The in vitro T1/2 was converted to in vitro intrinsic clearance (CLint,hep) in units of mL/min/kg using the formula shown below:
(§3) [formula] The in vitro intrinsic clearance (CLint,hep) was scaled to in vivo hepatic clearance (CL,hep) using the following equation which was adapted from a well-stirred model.
(§4) [formula] where Q is the liver blood flow and fu is the fraction unbound (assumed to be unity in this case). All parameters used in the calculation are shown below (Table 4).
(§5) The extraction ratio (ER) was calculated by dividing the hepatic clearance of a compound to the liver blood flow. The data reported in Table 5 were obtained according to the human hepatocytes stability assay described above.

The next series concerns human hepatocytes. Briefly: Hepatocytes stability assay (human hepatocytes). The settings on record: human hepatocytes; scaled hepatic clearance divided by liver blood flow (well-stirred model, fu assumed unity). As to the method: as §1, §2, §3, §4, §5

As to `Cc1cccc2c1C1CCC(CC1)OC[C@H]1[C@@H](NS(=O)(=O)C3CC3)CCCN1C(=O)CO2` (stereo in doubt) [Compound 4], in the series on MDR1, the efflux ratio at 2 h, 3 μM is 31 and the Papp A→B at 2 h, 3 μM was determined as 6.6 nm/s. Moreover, the hepatocyte CLint at 1 μM in series [1] came to 29 µL/min/1e6 cells. In addition, the “Extraction Ratio (ER)” value in the series on human hepatocytes is on record as 0.81.
Taken in the same sequence, the figures for `C=CS(=O)(=O)N[C@H]1CCCN2C(=O)COc3ccccc3C3CCC(CC3)OC[C@@H]12` (stereo in doubt) [Compound 5] were 29, 13 nm/s, 22 µL/min/1e6 cells and 0.77.
Taken in the same sequence, the figures for `O=C1COc2ccccc2C2CCC(CC2)OC[C@H]2[C@@H](NS(=O)(=O)CF)CCCN12` (stereo in doubt) [Compound 6] were 35, 10 nm/s, 18 µL/min/1e6 cells and 0.73.
Taken in the same sequence, the figures for `O=C1COc2ccccc2C2CCC(CC2)OC[C@H]2[C@@H](NS(=O)(=O)C(F)F)CCCN12` (stereo in doubt) [Compound 7] were 22, 14 nm/s, 19 µL/min/1e6 cells and 0.74.
Consider `CC1(S(=O)(=O)N[C@H]2CCCN3C(=O)COc4ccccc4C4CCC(CC4)OC[C@@H]23)CC1` (stereo in doubt) [Compound 8], for which, in the series on MDR1, the efflux ratio at 2 h, 3 μM was 3.6 and the apparent permeability from apical to basolateral (Papp A→B) at 2 h, 3 μM was found to be 18 nm/s. For the same compound, the hepatocyte CLint at 1 μM in series [1] was determined as 31 µL/min/1e6 cells. Besides, the “Extraction Ratio (ER)” value in the series with human hepatocytes amounted to 0.82.
The matching figures for `Cc1cccc2c1C1CCC(CC1)OC[C@H]1[C@@H](NS(=O)(=O)C(C)C)CCCN1C(=O)CO2` (stereo in doubt) [Compound 9]: 50, 8.7 nm/s, 32 µL/min/1e6 cells and 0.83.
With `Cc1ccc2c(c1)C1CCC(CC1)OC[C@H]1[C@@H](NS(=O)(=O)C3CC3)CCCN1C(=O)CO2` (stereo in doubt) [Compound 13], in the series on MDR1, the efflux ratio at 2 h, 3 μM was 72 and the Papp A→B at 2 h, 3 μM came to 3.5 nm/s. In addition, the hepatocyte CLint at 1 μM in series [1] is 6.3 µL/min/1e6 cells. Further, the “Extraction Ratio (ER)” value in the series on human hepatocytes is 0.48.
The matching figures for `O=C1COc2ncccc2C2CCC(CC2)OC[C@H]2[C@@H](NS(=O)(=O)C3CC3)CCCN12` (stereo in doubt) [Compound 14]: more than 100, 3 nm/s, 20 µL/min/1e6 cells and 0.75.
Turning to `O=C1COc2ccc(Cl)cc2C2CCC(CC2)OC[C@H]2[C@@H](NS(=O)(=O)C3CC3)CCCN12` (stereo in doubt) [Compound 16], in the series on MDR1, the efflux ratio at 2 h, 3 μM is more than 100 and the Papp A→B at 2 h, 3 μM worked out at 2 nm/s. Further, the hepatocyte CLint at 1 μM in series [1] is 6.1 µL/min/1e6 cells. Moreover, the “Extraction Ratio (ER)” value with human hepatocytes stood at 0.47.
With `Cc1ccc2c(c1)C1CCC(CC1)OC[C@H]1[C@@H](NS(=O)(=O)C(C)C)CCCN1C(=O)CO2` (stereo in doubt) [Compound 18], in the series on MDR1, the efflux ratio at 2 h, 3 μM amounted to 19 and the Papp A→B at 2 h, 3 μM was 8.3 nm/s. In addition, in series [1], the hepatocyte CLint at 1 μM was 5.8 µL/min/1e6 cells. The “Extraction Ratio (ER)” value with human hepatocytes is recorded as 0.46.
Taken in the same sequence, the figures for `O=C1COc2ccccc2C2CCC(CC2)OC[C@H]2[C@@H](NS(=O)(=O)CCO)CCCN12` (stereo in doubt) [Compound 19] were more than 100, less than 0.92 nm/s, 6.6 µL/min/1e6 cells and 0.50.
The matching figures for `CC(C)S(=O)(=O)N[C@H]1CCCN2C(=O)COc3ccc(Cl)cc3[C@H]3CC[C@H](CC3)OCC12` (stereo in doubt) [Compound 26]: more than 100, less than 1.2 nm/s, 5.1 µL/min/1e6 cells and 0.43.
For `Cc1c(Cl)ccc2c1[C@H]1CC[C@H](CC1)OCC1[C@@H](NS(=O)(=O)C(C)C)CCCN1C(=O)CO2` (stereo in doubt) [Compound 28], in the series on MDR1, the efflux ratio at 2 h, 3 μM came to 92 and the Papp A→B at 2 h, 3 μM was determined as 4.3 nm/s. For the same compound, the hepatocyte CLint at 1 μM in series [1] was 3.8 µL/min/1e6 cells. The “Extraction Ratio (ER)” value in the series on human hepatocytes came out at 0.36.
Taken in the same sequence, the figures for `Cc1c(Cl)ccc2c1[C@H]1CC[C@H](CC1)OCC1[C@@H](NS(C)(=O)=O)CCCN1C(=O)CO2` (stereo in doubt) [Compound 31] were more than 100, 3.2 nm/s, 3.9 µL/min/1e6 cells and 0.37.
For `O=C1COc2ccccc2[C@H]2CC[C@H](CC2)OCC2[C@@H](NS(=O)(=O)C3CCCC3)CCCN12` (stereo in doubt) [Compound 33], in the series with MDR1, the efflux ratio at 2 h, 3 μM was 59 and the Papp A→B at 2 h, 3 μM is 5.5 nm/s. Besides, the hepatocyte CLint at 1 μM in series [1] stood at 41 µL/min/1e6 cells. Also, the “Extraction Ratio (ER)” value with human hepatocytes is 0.86.
The matching figures for `Cc1cnc2c(c1)[C@H]1CC[C@H](CC1)OCC1[C@@H](NS(=O)(=O)C(C)C)CCCN1C(=O)CO2` (stereo in doubt) [Compound 34]: 67, 4.4 nm/s, 7.1 µL/min/1e6 cells and 0.52.
The matching figures for `CC(C)S(=O)(=O)N[C@H]1CCCN2C(=O)COc3ncc(Cl)cc3[C@H]3CC[C@H](CC3)OCC12` (stereo in doubt) [Compound 35]: 81, 3.5 nm/s, 16 µL/min/1e6 cells and 0.70.
The matching figures for `Cc1cccc2c1OCC(=O)N1CCC[C@H](NS(C)(=O)=O)C1CO[C@H]1CC[C@@H]2CC1` (stereo in doubt) [Compound 37]: more than 100, 2.3 nm/s, 24 µL/min/1e6 cells and 0.78.
For `CN(C)CCS(=O)(=O)N[C@H]1CCCN2C(=O)COc3ccccc3[C@H]3CC[C@H](CC3)OCC12` (stereo in doubt) [Compound 39], in the series with MDR1, the efflux ratio at 2 h, 3 μM was more than 100 and the Papp A→B at 2 h, 3 μM is less than 0.86 nm/s. The hepatocyte CLint at 1 μM in series [1] came out at 20 µL/min/1e6 cells. For the same compound, the “Extraction Ratio (ER)” value with human hepatocytes was 0.75.
